{
  "source": "patent US10414760B2",
  "about": "“Cytochrome P450 inhibitors and uses thereof” (ANGION BIOMEDICA CORP., priority 2016, dated 2019)",
  "key": {"CYP17": {"molecular_target": "T1, CYP17 (Rattus norvegicus, UniProt P11715)", "T1 construct": "using rat and dog testis microsomes and ELISA kits from commercial vendors; from tissue; host or cells: rat testis microsomes", "T1 sequence (P11715 1-507)": "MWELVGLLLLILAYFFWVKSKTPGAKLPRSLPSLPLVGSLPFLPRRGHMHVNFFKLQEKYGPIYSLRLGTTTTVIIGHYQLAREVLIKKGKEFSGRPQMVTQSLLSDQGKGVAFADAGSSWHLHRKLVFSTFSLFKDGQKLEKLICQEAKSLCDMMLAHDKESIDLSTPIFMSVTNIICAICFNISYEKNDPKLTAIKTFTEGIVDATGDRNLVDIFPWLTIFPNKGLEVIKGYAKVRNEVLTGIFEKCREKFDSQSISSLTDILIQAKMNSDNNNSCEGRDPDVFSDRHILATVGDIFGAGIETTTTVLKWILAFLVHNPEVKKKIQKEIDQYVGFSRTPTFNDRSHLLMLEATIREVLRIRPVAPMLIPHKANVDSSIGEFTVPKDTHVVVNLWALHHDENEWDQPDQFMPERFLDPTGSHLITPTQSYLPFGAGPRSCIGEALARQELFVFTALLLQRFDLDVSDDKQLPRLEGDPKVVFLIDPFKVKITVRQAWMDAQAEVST", "assay": "CYP17 inhibition: 17α hydroxylase and C17,20 lyase activity in testis microsomes, ELISA detection", "type": "biochemical", "conditions": "which microsome assay (rat or dog testis) not specified", "protocol": "Serum Testosterone and PSA and Tumor Testosterone Analysis. Tumor tissue obtained from mice will be homogenized in phosphate buffer (pH 7.4, 0.1 M) and homogenates centrifuged at 2000 g for 20 min. Testosterone concentrations in the serum and in the clear tissue homogenate supernatant will be determined with the ELISA kit from R&D Systems (Catalog # KGR010). Serum PSA concentrations will be measured using a PSA ELISA kit with a serum dilution according to the manufacturers instructions. • c. Breast cancer. To test the efficacy of compounds embodied herein against breast cancer, nude mice carrying human breast cancer lines that are estrogen receptor and Aromatase positive will be used. Cells will be grown in vitro and 2 million will be inoculated in Matrigel (50:50 volume ratio of cells to Matrigel). Cells will be distributed by s.c. injection at the right and left flanks or at the orthotopic sitest in 6 to 8 week old athymic nude mice (BALB/c strain) or severe combined immunodeficient mice under anesthesia. Animals will be treated with compound for 4 weeks, at which point animals will be sacrificed and collect blood samples and tumor tissue for the determination of serum and tumor estrogen levels. Tumors will be excised and a portion will be fixed in formalin for subsequent histochemical and immuno-histochemical analysis. The remainder will be snap frozen in liquid nitrogen and stored at −80° C. • 12. CYP26 inhibition activity. […] The assay is run in a 100 μL reaction volume and stopped with an equal volume of methanol. […] CYP17 inhibition assay: In vitro assays for CYP17 17α-hydroxylase and C17,20-lyase activity, assays using rat and dog testis microsomes and ELISA kits from commercial vendors for the detection of formed products are employed. […] Assays are also used that determine the activity of 17α-hydroxylase activity using P4 as a substrate and detecting HOP4 as a product (using dog testis microsomes) and the activity of C17,20-lyase by using HOP4 as a substrate and AD as a product (rat testis microsomes). • 14.\nCYP17 inhibition. In vitro assays for CYP17 17α hydroxylase and C17,20 lyase activity using rat and dog testis microsomes and ELISA kits from commercial vendors for the detection of formed products were employed. […] Assays were also used that determine the activity of 17α hydroxylase activity using P4 as a substrate and detecting HOP4 as a product (using dog testis microsomes) and the activity of C17,20 lyase by using HOP4 as a substrate and AD as a product (rat testis microsomes)."}, "CYP19": {"molecular_target": "T2, CYP19 (Homo sapiens, UniProt P11511)", "T2 construct": "purchased BD Gentest 456260", "T2 sequence (P11511 1-503)": "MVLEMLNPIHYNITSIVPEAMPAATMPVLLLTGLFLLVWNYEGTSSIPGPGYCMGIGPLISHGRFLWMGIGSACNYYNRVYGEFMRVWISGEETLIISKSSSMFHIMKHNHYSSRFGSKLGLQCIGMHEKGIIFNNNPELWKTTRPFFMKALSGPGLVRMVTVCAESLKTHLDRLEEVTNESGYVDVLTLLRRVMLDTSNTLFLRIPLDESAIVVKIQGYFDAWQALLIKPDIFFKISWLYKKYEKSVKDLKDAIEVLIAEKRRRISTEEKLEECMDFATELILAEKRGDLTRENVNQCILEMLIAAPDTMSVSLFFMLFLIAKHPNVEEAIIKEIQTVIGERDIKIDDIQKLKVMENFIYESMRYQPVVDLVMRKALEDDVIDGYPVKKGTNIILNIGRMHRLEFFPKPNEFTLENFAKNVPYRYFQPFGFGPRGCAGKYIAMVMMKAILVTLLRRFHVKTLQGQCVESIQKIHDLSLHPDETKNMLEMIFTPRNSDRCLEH", "assay": "CYP19 inhibition: commercially available recombinant enzyme and assay kit", "type": "biochemical", "protocol": "(§1) Serum Testosterone and PSA and Tumor Testosterone Analysis. Tumor tissue obtained from mice will be homogenized in phosphate buffer (pH 7.4, 0.1 M) and homogenates centrifuged at 2000 g for 20 min. Testosterone concentrations in the serum and in the clear tissue homogenate supernatant will be determined with the ELISA kit from R&D Systems (Catalog # KGR010). Serum PSA concentrations will be measured using a PSA ELISA kit with a serum dilution according to the manufacturers instructions. • c. Breast cancer. To test the efficacy of compounds embodied herein against breast cancer, nude mice carrying human breast cancer lines that are estrogen receptor and Aromatase positive will be used. Cells will be grown in vitro and 2 million will be inoculated in Matrigel (50:50 volume ratio of cells to Matrigel). Cells will be distributed by s.c. injection at the right and left flanks or at the orthotopic sitest in 6 to 8 week old athymic nude mice (BALB/c strain) or severe combined immunodeficient mice under anesthesia. Animals will be treated with compound for 4 weeks, at which point animals will be sacrificed and collect blood samples and tumor tissue for the determination of serum and tumor estrogen levels. Tumors will be excised and a portion will be fixed in formalin for subsequent histochemical and immuno-histochemical analysis. The remainder will be snap frozen in liquid nitrogen and stored at −80° C. • 12. CYP26 inhibition activity. A substrate depletion assay for ATRA metabolism in mouse microsomes is used. […] The assay is run in a 100 μL reaction volume and stopped with an equal volume of methanol. […] CYP17 inhibition assay: In vitro assays for CYP17 17α-hydroxylase and C17,20-lyase activity, assays using rat and dog testis microsomes and ELISA kits from commercial vendors for the detection of formed products are employed. Incubation of rat testis microsomes with the substrate progesterone (P4) results, through the CYP17 17α-hydroxylase and C17,20-lyase activities, in a marked production of androstenedione (AD) in a time and enzyme-concentration dependent manner. […] In another control, microsomes isolated from rat livers, which are known to express very little or no CYP17, are shown to be devoid of this activity. Assays are also used that determine the activity of 17α-hydroxylase activity using P4 as a substrate and detecting HOP4 as a product (using dog testis microsomes) and the activity of C17,20-lyase by using HOP4 as a substrate and AD as a product (rat testis microsomes). • 14. CYP19 inhibition assay: For in vitro assays of CYP19 aromatase activity, commercially available CYP19 enzyme preparations (e.g. BD Gentest Supersomes Catalog #456260) and assay kits (e.g. BD Gentest Catalog #459520) are employed according to the manufacturers instructions.\nSelectivity for other P450 enzymes. To assess the selectivity of compounds embodied herein, activity was evaluated first against CYP3A4 and CYP19 using commercially available recombinant enzymes and assay kits. To calculate a selectivity factor, the IC50 for a particular P450 enzyme was divided by the IC50 in the CYP17 combination assay."}, "CYP26 [1]": {"molecular_target": "T3, CYP26 (Mus musculus, UniProt O55127)", "T3 construct": "tissue Xenotech; host or cells: liver microsomes of ATRA-treated mice", "T3 sequence (O55127 1-497)": "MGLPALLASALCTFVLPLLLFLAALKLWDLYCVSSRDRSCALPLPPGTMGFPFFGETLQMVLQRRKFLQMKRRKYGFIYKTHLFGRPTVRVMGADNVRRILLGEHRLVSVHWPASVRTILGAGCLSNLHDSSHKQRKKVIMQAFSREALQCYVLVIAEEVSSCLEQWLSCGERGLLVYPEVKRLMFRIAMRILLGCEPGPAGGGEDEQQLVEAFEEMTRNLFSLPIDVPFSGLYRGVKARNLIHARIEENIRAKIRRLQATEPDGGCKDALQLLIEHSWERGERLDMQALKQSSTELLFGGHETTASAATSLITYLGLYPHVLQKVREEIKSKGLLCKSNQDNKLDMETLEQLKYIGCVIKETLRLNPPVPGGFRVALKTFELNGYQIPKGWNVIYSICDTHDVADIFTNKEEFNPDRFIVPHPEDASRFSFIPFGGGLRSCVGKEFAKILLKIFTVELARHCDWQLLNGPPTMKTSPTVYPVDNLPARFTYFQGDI", "assay": "CYP26 inhibition: substrate depletion assay for ATRA metabolism in mouse microsomes", "type": "biochemical", "protocol": "as §1\nCYP26 inhibition. […] The assay was run in a 100 μL reaction volume and stopped with an equal volume of methanol. […] Other compounds of formula (I) are similarly potent, for example with an IC50 of 1.6 nM."}, "CYP26 [2]": {"molecular_target": "T4, CYP26 (Homo sapiens, UniProt O43174)", "T4 sequence (O43174 1-497)": "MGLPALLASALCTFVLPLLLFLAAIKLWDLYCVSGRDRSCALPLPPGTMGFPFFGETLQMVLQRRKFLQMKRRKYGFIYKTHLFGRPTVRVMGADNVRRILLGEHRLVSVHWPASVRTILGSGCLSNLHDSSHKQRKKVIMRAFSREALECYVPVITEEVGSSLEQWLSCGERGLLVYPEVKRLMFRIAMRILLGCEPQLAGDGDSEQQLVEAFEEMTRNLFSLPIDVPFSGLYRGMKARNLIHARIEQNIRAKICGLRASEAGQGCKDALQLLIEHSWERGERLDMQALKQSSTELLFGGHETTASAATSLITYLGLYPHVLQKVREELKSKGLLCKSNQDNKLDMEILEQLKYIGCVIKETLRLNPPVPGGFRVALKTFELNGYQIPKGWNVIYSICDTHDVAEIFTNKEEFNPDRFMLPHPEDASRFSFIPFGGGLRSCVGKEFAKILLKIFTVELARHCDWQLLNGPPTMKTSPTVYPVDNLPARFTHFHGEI", "conditions": "human recombinant enzyme; read-out: Km reported for the human recombinant enzyme; cited from earlier work"}, "[3]": {"substrate": "CC1=C(/C=C/C(C)=C/C=C/C(C)=C/C(=O)O)C(C)(C)CCC1", "assay": "cells, lysate or membranes named", "conditions": "other: induced mouse microsomes; pH 7.4"}},
  "data": [
    {"molecule": "CCC(C(c1ccc2nc(N)sc2c1)n1ccnc1)N(C)C", "note": "(centres unmarked) [Example 1, 6-(2-(Dimethylamino)-1-(1H-imidazol-1-yl)butyl)benzo[d]thiazol-2-amine]", "values": [
      {"measurement": "IC50", "setting": "CYP17", "result": "< 5", "unit": "µM"},
      {"measurement": "IC50", "setting": "CYP19", "result": "< 1", "unit": "µM"},
      {"measurement": "IC50", "setting": "CYP26 [1]", "result": "< 1", "unit": "µM"}
    ]},
    {"molecule": "CCC(C(c1ccc2nc(Br)sc2c1)n1ccnc1)N(C)C", "note": "(centres unmarked) [Example 8, 1-(2-Bromobenzo[d]thiazol-6-yl)-1-(1H-imidazol-1-yl)-N,N-dimethylbutan-2-amine]", "values": [
      {"measurement": "IC50", "setting": "CYP17", "result": "< 5", "unit": "µM"},
      {"measurement": "IC50", "setting": "CYP19", "result": "< 1", "unit": "µM"},
      {"measurement": "IC50", "setting": "CYP26 [1]", "result": "< 1", "unit": "µM"}
    ]},
    {"molecule": "CC1=C(/C=C/C(C)=C/C=C/C(C)=C/C(=O)O)C(C)(C)CCC1", "note": "[ATRA, all-trans retinoic acid]", "values": [
      {"measurement": "Km", "setting": "CYP26 [2]", "result": "~0.01", "unit": "µM"}
    ]},
    {"molecule": "CYP26 (Mus musculus) (protein) MGLPALLASALCTFVLPLLLFLAALKLWDLYCVSSRDRSCALPLPPGTMGFPFFGETLQMVLQRRKFLQMKRRKYGFIYKTHLFGRPTVRVMGADNVRRILLGEHRLVSVHWPASVRTILGAGCLSNLHDSSHKQRKKVIMQAFSREALQCYVLVIAEEVSSCLEQWLSCGERGLLVYPEVKRLMFRIAMRILLGCEPGPAGGGEDEQQLVEAFEEMTRNLFSLPIDVPFSGLYRGVKARNLIHARIEENIRAKIRRLQATEPDGGCKDALQLLIEHSWERGERLDMQALKQSSTELLFGGHETTASAATSLITYLGLYPHVLQKVREEIKSKGLLCKSNQDNKLDMETLEQLKYIGCVIKETLRLNPPVPGGFRVALKTFELNGYQIPKGWNVIYSICDTHDVADIFTNKEEFNPDRFIVPHPEDASRFSFIPFGGGLRSCVGKEFAKILLKIFTVELARHCDWQLLNGPPTMKTSPTVYPVDNLPARFTYFQGDI", "values": [
      {"measurement": "Km", "setting": "[3]", "result": 0.004, "unit": "µM"}
    ]}
  ]
}
